IC50, inhibition and Ki data for 41 compounds are collected here from ChEMBL document CHEMBL1136056, “Discovery of a nonpeptidic small molecule antagonist of the human platelet thrombin receptor (PAR-1)” (Bioorg Med Chem Lett, 2002).

A value given as a limit tells only on which side of the number the result lay.

Experiment [1] has as its target T1, Proteinase-activated receptor 1 (Homo sapiens, UniProt P25116).
T1 sequence (P25116 whole entry): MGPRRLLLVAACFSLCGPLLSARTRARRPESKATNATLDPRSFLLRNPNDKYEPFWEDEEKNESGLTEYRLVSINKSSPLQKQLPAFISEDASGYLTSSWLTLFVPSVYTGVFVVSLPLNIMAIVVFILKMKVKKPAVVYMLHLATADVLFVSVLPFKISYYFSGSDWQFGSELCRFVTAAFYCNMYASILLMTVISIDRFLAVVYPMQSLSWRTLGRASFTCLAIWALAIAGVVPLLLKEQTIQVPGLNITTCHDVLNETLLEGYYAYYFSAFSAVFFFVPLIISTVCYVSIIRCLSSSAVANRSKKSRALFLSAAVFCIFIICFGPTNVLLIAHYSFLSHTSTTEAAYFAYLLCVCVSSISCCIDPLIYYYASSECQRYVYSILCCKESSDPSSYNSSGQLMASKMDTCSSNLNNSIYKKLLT
The experiment is described as follows: Antagonistic activity against thrombin receptor, inhibition of secreted radiolabeled [3H]5-HT from washed human platelets stimulated by 3 uM thrombin receptor activating peptide (TRAP). Format: functional.

Experiment [2] concerns the target T1, Proteinase-activated receptor 1. The experiment can be described thus: Inhibition of secretion of radiolabeled serotonin from washed human platelets stimulated by 1 nM thrombin. In kind it is functional.
Experiment [3] shares this target. The experiment can be described thus: Displacement of [3H]SFFLRR-NH2 from human thrombin receptor PAR-1.
The target in experiment [4] is T2, Proteinase-activated receptor 1 (Homo sapiens) (UniProt P25116).
T2 sequence (whole entry): T1 sequence (P25116 whole entry)
The experiment can be described thus: Inhibition of secretion of radiolabeled concentration. In kind it is functional. The settings on record: concentration not given here.

For a further experiment, the target named is Prothrombin (Homo sapiens, UniProt P00734). The experiment can be described thus: Compound was tested for thrombin catalytic activity; no inhibition was observed.

As to `COc1ccc(-c2cc(N(CCCN3CCCCCC3)Cc3ccc4c(c3)OCO4)on2)cc1F`, the values for the IC50 in experiment [1] and in experiment [2] were 0.07 µM and 2.14 µM, respectively. Consider `COc1cccc(-c2cc(N(CCCN3CCCCCC3)Cc3ccc4c(c3)OCO4)on2)c1`, for which the half-inhibitory concentration (IC50) (usually the concentration at which inhibition is half-maximal) in experiment [1] is 0.13 µM; in experiment [2], 2.24 µM; in experiment [3], 0.26 µM. Taken in the same sequence, the figures for `Clc1cccc(-c2cc(N(CCCN3CCCCCC3)Cc3ccc4c(c3)OCO4)on2)c1` were 0.27 µM, 0.91 µM and 1.16 µM.

`c1ccc(-c2cc(N(CCCN3CCCCC3)CC3CCCCC3)on2)cc1` returned an IC50 in experiment [1] above 10 µM. The same measure, in the same setting: to `c1ccc(-c2cc(N(CCCN3CCCCCC3)Cc3cccc4ccccc34)on2)cc1` belongs 0.36 µM. `Clc1ccc(-c2cc(N(CCCN3CCCCCC3)Cc3ccc4c(c3)OCO4)on2)cc1`: the concentration for half-maximal inhibition (IC50) came to 1.24 µM in experiment [1], 4.25 µM in experiment [2] and 0.99 µM in experiment [3]. On to `Clc1ccccc1-c1cc(N(CCCN2CCCCCC2)Cc2ccc3c(c2)OCO3)on1`, for which the half-maximal inhibitory concentration (IC50) in experiment [1] was found to be 2.99 µM. As to `c1ccc(-c2cc(N(CCCN3CCCCC3)Cc3ccc4ccccc4c3)on2)cc1`, in experiment [1], the IC50 stood at 2 µM. The IC50 values of the last two compounds are within 1.5-fold of each other. Turning to `Fc1ccc(-c2cc(N(CCCN3CCCCCC3)Cc3ccc4c(c3)OCO4)on2)cc1F`, the IC50 in experiment [1] is 0.5 µM; in experiment [2] it was 2.4 µM; in experiment [3], 2.14 µM. For the compound `COc1cccc(CN(CCCN2CCC2)c2cc(-c3ccccc3)no2)c1`, the IC50 in experiment [1] was above 10 µM. With `Fc1cccc(-c2cc(N(CCCN3CCCCCC3)Cc3ccc4c(c3)OCO4)on2)c1`, the IC50 in experiment [1] was 0.14 µM; in experiment [2], 1.18 µM; in experiment [3], 0.77 µM. On to `c1ccc(-c2cc(N(CCCCN3CCCCCC3)Cc3cccc4ccccc34)on2)cc1`, for which the midpoint of inhibition in experiment [1], the IC50, lay at 5 µM. As to `CS(=O)(=O)c1ccc(-c2cc(N(CCCN3CCCCCC3)Cc3ccc4c(c3)OCO4)on2)cc1`, in experiment [1], the IC50 was 3.2 µM. As to `Cc1ccc(-c2cc(N(CCCN3CCCCCC3)Cc3ccc4c(c3)OCO4)on2)cc1`, the IC50 in experiment [1] is 0.14 µM; in experiment [2], 3.2 µM; in experiment [3], 0.29 µM. `Clc1cccc(CN(CCCN2CCCCC2)c2cc(-c3ccccc3)no2)c1` yielded an IC50 in experiment [1] of 1 µM. In experiment [1], `COc1cccc(CN(CCCN2CCCCCCC2)c2cc(-c3ccccc3)no2)c1` had an IC50 above 10 µM.

Consider `Cc1cccc(-c2cc(N(CCCN3CCCCCC3)Cc3ccc4c(c3)OCO4)on2)c1`, for which the inhibition (usually the relative decrease from the control value, in per cent) in experiment [4] was 60%. Besides, the values for the 50% inhibitory concentration (IC50) in experiment [1] and in experiment [3] were 0.12 µM and 0.89 µM, respectively. In turn, `COc1ccc(-c2cc(N(CCCN3CCCCCC3)Cc3ccc4c(c3)OCO4)on2)cc1` showed an inhibition in experiment [4] of 60%. Besides, the IC50 in experiment [1] turned out to be 0.13 µM; in experiment [3], 0.25 µM. On to `c1ccc(-c2cc(N(CCCN3CCCCC3)Cc3ccc4c(c3)OCO4)on2)cc1`, for which, in experiment [1], the IC50 is 0.6 µM. For `Fc1ccc(-c2cc(N(CCCN3CCCCCC3)Cc3ccc4c(c3)OCO4)on2)cc1`, the 50% inhibitory concentration (IC50) in experiment [1] was 1.31 µM; in experiment [2] it was above 10 µM.

Turning to `c1ccc(-c2ccc(-c3cc(N(CCCN4CCCCCC4)Cc4ccc5c(c4)OCO5)on3)cc2)cc1`, the IC50 in experiment [1] amounted to 4.44 µM. As for `Ic1ccc(-c2cc(N(CCCN3CCCCCC3)Cc3ccc4c(c3)OCO4)on2)cc1`, the concentration for half-maximal inhibition (IC50) in experiment [1] turned out to be 0.09 µM; in experiment [2], 0.88 µM; in experiment [3], 0.47 µM. Compound `c1ccc(-c2cc(N(CCN3CCCCCC3)Cc3cccc4ccccc34)on2)cc1` displayed an IC50 in experiment [1] of 5 µM. This counts as single-digit micromolar. Take `COc1ccccc1-c1cc(N(CCCN2CCCCCC2)Cc2ccc3c(c2)OCO3)on1`: the results for the IC50 in experiment [1] and in experiment [3] were 2.22 µM and 2.21 µM, respectively. `c1ccc(-c2cc(N(CCCN3CCCCC3)Cc3cccc4ccccc34)on2)cc1` yielded an IC50 in experiment [1] of 0.5 µM. Consider `COc1ccc(-c2cc(N(CCCN3CCCCCC3)Cc3ccc4c(c3)OCO4)on2)cc1OC`, for which the IC50 is 0.4 µM in experiment [1], 4.67 µM in experiment [2] and 1.2 µM in experiment [3].

For `Cc1ccccc1-c1cc(N(CCCN2CCCCCC2)Cc2ccc3c(c2)OCO3)on1`, the IC50 in experiment [1] stood at 3.22 µM. On to `COc1cc(OC)cc(-c2cc(N(CCCN3CCCCCC3)Cc3ccc4c(c3)OCO4)on2)c1`, for which the results for the IC50 in experiment [1], in experiment [2] and in experiment [3] were 0.13 µM, 1.2 µM and 0.52 µM, respectively. In the case of `CSc1ccc(-c2cc(N(CCCN3CCCCCC3)Cc3ccc4c(c3)OCO4)on2)cc1`, the results for the IC50 in experiment [1] and in experiment [2] were 0.43 µM and above 4 µM, respectively.

Consider `COc1cccc(CN(CCCC2CCCCC2)c2cc(-c3ccccc3)no2)c1`, for which the IC50 in experiment [1] was above 10 µM.

Regarding `CC(C)N(CC(O)c1ccc(C#N)cc1)C(=O)Nc1ccccc1` (centres undefined), the concentration for half-maximal inhibition (IC50) in experiment [1] worked out at 12 µM. `C[S+]([O-])c1ccc(-c2cc(N(CCCN3CCCCCC3)Cc3ccc4c(c3)OCO4)on2)cc1` (centres undefined) came in with a half-maximal inhibitory concentration (IC50) in experiment [1] of 3.7 µM. In experiment [1], `COc1cccc(CN(CCCN2CCCC2)c2cc(-c3ccccc3)no2)c1` displayed an IC50 of 3.3 µM. Same read-out and setting: with `c1ccc(CN(CCCN2CCCCC2)c2cc(-c3ccccc3)no2)cc1` the figure was 9 µM. `CCCCN(CCCN1CCCCC1)c1cc(-c2ccccc2)no1`: in experiment [1], the 50% inhibitory concentration (IC50) is above 40 µM. `N#Cc1cccc(-c2cc(N(CCCN3CCCCCC3)Cc3ccc4c(c3)OCO4)on2)c1`: the IC50 in experiment [1] was found to be 0.35 µM; in experiment [2], 1.97 µM; in experiment [3], 0.6 µM. In the case of `COc1cccc(CN(CCCN2CCCCCC2)c2cc(-c3ccccc3)no2)c1`, half-maximal inhibition in experiment [1] (IC50) required 0.5 µM. This counts as sub-micromolar.

Regarding `c1ccc(-c2cccc(-c3cc(N(CCCN4CCCCCC4)Cc4ccc5c(c4)OCO5)on3)c2)cc1`, in experiment [1], the IC50 came to 6.42 µM. Still for that read-out and setting: with `COc1cccc(CN(CCCN2CCCCC2)c2cc(-c3ccccc3)no2)c1` the figure was 1.6 µM.

As for `O=[N+]([O-])c1cccc(-c2cc(N(CCCN3CCCCCC3)Cc3ccc4c(c3)OCO4)[o+][n-]2)c1`, the concentration for half-maximal inhibition (IC50) in experiment [1] was 0.83 µM; in experiment [2], above 10 µM; in experiment [3], 1.02 µM. With `Fc1cc(F)cc(-c2cc(N(CCCN3CCCCCC3)Cc3ccc4c(c3)OCO4)on2)c1`, the Ki (commonly a measure of affinity in units of concentration, obtained from inhibition or displacement) at Prothrombin is above 10 µM. Besides, the half-maximal inhibitory concentration (IC50) is 0.09 µM in experiment [1], 0.51 µM in experiment [2] and 0.15 µM in experiment [3].
